We go through 37 molecules from patent US20230202985A1, “Indoles, Indazoles, and Related Analogs for Inhibiting YAP/TAZ-TEAD” (THE KATHOLIEKE UNIVERSITEIT LEUVEN, priority 2021, published 2023).

Each structure is given as a SMILES string. Bounds are passed on as bounds.

This experiment deals with YAP/TAZ-TEAD transcription. Nature of the experiment: Reporter gene assay for measuring the inhibition of YAP/TAZ-TEAD transcription (TEAD-responsive element luciferase reporter in Hek293T cells). It is filed as cell-based. Particulars: Homo sapiens, HEK-293T; Hek293T cells transfected with TEAD-responsive luciferase reporter, 24 hours incubation. The procedure: Hek293T cells are cultured in DMEM supplemented with 10% fetal bovine serum, Sodium pyruvate, Sodium bicarbonate, L-glutamine. The cells are harvested and transiently transfected with TEAD-responsive element luciferase reporter. Transfected cells are plated in 384-wells plate containing pre-diluted compounds. After 24 hours incubation at 37° C./5% CO2, assay plates were cooled down to RT and levelled to an equal volume per well, prior to the addition of 25 uL luciferase substrate SteadyLite (Perkin Elmer)/well. The plate was shaken for 10 min at 600 rpm, centrifuged for 1 min at 500 rpm and measured with an Envision reader (PerkinElmer). The amount of relative light units produced by the TEAD reporter is used to calculated percent of inhibition.
The percent of reporter inhibition was calculated in the presence of a positive control inhibitor (100% inhibition) versus a condition with the presence of the vehicle basal activity of the reporter (0% inhibition). The ability of a test compound to inhibit this activity was determined as:
Percentage inhibition=[1−((RLU determined in the presence of vehicle−RLU determined for sample with test compound present) divided by (RLU determined in the presence of vehicle−RLU determined for sample with positive control inhibitor))]*100
The activities of example compounds tested are depicted in Table 6. The activity ranges A, B and C refer to IC50 values in the reporter gene assay as follows: “A”: IC50<1 μM; “B”: 1 μM≤IC50≤20 μM and “C”: IC50>20 μM; NT=not tested.
(In general: Reporter assays use an easily measured gene product as a stand-in for the process of interest.)

By EC50 is commonly meant the concentration at which the effect is half-maximal. As to `CS(=O)(=O)NCc1nn(-c2ccc(C(F)(F)F)cc2)c2ccc(OCC3CCOC3)cc12` (racemic) [compound 44, N-[[5-[[rac-tetrahydrofuran-3-yl]methoxy]-1-[4-(trifluoromethyl)phenyl]indazol-3-yl]methyl]methanesulfonamide], the EC50 fell in the range of 1 to 20 µM.
In the case of `CS(=O)(=O)NCc1nn(-c2ccc(C(F)(F)F)cc2)c2ccc(Oc3ccccc3)cc12` [Cpd. No. 45, N-[[5-phenoxy-1-[4-(trifluoromethyl)phenyl]indazol-3-yl]methyl]methanesulfonamide] it was 1 to 20 µM.
In the case of `CCC(=O)NCc1nn(-c2ccc(C(F)(F)F)cc2)c2ccccc12` [compound 2, N-((1-(4-(trifluoromethyl)phenyl)-1H-indazol-3-yl)methyl)propionamide] it was 1 to 20 µM.
Consider `CCC(=O)NCc1nn(-c2ccc(OC(F)(F)F)cc2)c2ccccc12` [compound 5, N-((1-(4-(trifluoromethoxy)phenyl)-1H-indazol-3-yl)methyl)propionamide], for which the EC50 lay within 1 to 20 µM.
For `CS(=O)(=O)NCc1nn(-c2ccc(OC(F)(F)F)cc2)c2ccccc12` [compound 6, N-((1-(4-(trifluoromethoxy)phenyl)-1H-indazol-3-yl)methyl)methanesulfonamide], the EC50 was 1 to 20 µM.
In the case of `O=S1(=O)CCCN1Cc1nn(-c2ccc(C(F)(F)F)cc2)c2ccccc12` [compound 7, 2-((1-(4-(trifluoromethyl)phenyl)-1H-indazol-3-yl)methyl)isothiazolidine 1,1-dioxide] it was 1 to 20 µM; in that of `CNC(=O)c1nn(-c2ccc(C(F)(F)F)cc2)c2ccccc12` [compound 8, N-methyl-1-(4-(trifluoromethyl)phenyl)-1H-indazole-3-carboxamide], > 20 µM; in that of `Cn1cc(S(=O)(=O)NCc2nn(-c3ccc(C(F)(F)F)cc3)c3ccccc23)cn1` [compound 9, 1-methyl-N-((1-(4-(trifluoromethyl)phenyl)-1H-indazol-3-yl)methyl)-1H-pyrazole-4-sulfonamide], > 20 µM.
The figure for `O=S(=O)(NCc1nn(-c2ccc(C(F)(F)F)cc2)c2ccccc12)c1cccnc1` [compound 10, N-((1-(4-(trifluoromethyl)phenyl)-1H-indazol-3-yl)methyl)pyridine-3-sulfonamide] is > 20 µM; for `O=S(=O)(NCc1nn(-c2ccc(C(F)(F)F)cc2)c2ccccc12)C1CC1` [compound 11, N-((1-(4-(trifluoromethyl)phenyl)-1H-indazol-3-yl)methyl)cyclopropanesulfonamide] it is 1 to 20 µM.
As to `CS(=O)(=O)NC(=O)c1nn(-c2ccc(C(F)(F)F)cc2)c2ccccc12` [compound 12, N-(methylsulfonyl)-1-(4-(trifluoromethyl)phenyl)-1H-indazole-3-carboxamide], the EC50 lay within 1 to 20 µM.
`CN(C)S(=O)(=O)NCc1nn(-c2ccc(C(F)(F)F)cc2)c2ccccc12` [compound 13, N,N-dimethyl-N′-((1-(4-(trifluoromethyl)phenyl)-1H-indazol-3-yl)methyl)sulfamide] returned an EC50 of 1 to 20 µM.
Consider `O=C(NS(=O)(=O)C1CC1)c1nn(-c2ccc(C(F)(F)F)cc2)c2ccccc12` [compound 14, N-(cyclopropylsulfonyl)-1-(4-(trifluoromethyl)phenyl)-1H-indazole-3-carboxamide], for which the EC50 was > 20 µM.
`O=C(NCC(O)CO)c1nn(-c2ccc(C(F)(F)F)cc2)c2ccccc12` (stereo not shown) [compound 15, N-(2,3-dihydroxypropyl)-1-(4-(trifluoromethyl)phenyl)-1H-indazole-3-carboxamide]: the EC50 lay within 1 to 20 µM.
The figure for `CS(=N)(=O)NCc1nn(-c2ccc(C(F)(F)F)cc2)c2ccccc12` (stereo not shown) [compound 16, N-((1-(4-(trifluoromethyl)phenyl)-1H-indazol-3-yl)methyl)methanesulfonimidamide] is 1 to 20 µM; for `O=C1NCCN1Cc1nn(-c2ccc(C(F)(F)F)cc2)c2ccccc12` [compound 17, 1-((1-(4-(trifluoromethyl)phenyl)-1H-indazol-3-yl)methyl)imidazoiidin-2-one] it is < 1 µM.
With `O=C1OCCN1Cc1nn(-c2ccc(C(F)(F)F)cc2)c2ccccc12` [compound 18, 3-((1-(4-(trifluoromethyl)phenyl)-1H-indazol-3-yl)methyl)oxazolidin-2-one], the EC50 was < 1 µM.
`C=CC(=O)Nc1cn(-c2ccccc2)c2ccccc12` [compound 22, N-(1-phenyl-1H-indol-3-yl)acrylamide]: the EC50 fell in the range of 1 to 20 µM.
In the case of `C=CC(=O)Nc1cn(-c2ccc(C(C)C)cc2)c2ccccc12` [compound 23, N-(1-(4-isopropylphenyl)-1H-indol-3-yl)acrylamide] it was < 1 µM.
For `C=CC(=O)Nc1cn(-c2ccc(Cl)cc2)c2ccccc12` [compound 24, N-(1-(4-chlorophenyl)-1H-indol-3-yl)acrylamide], the EC50 was < 1 µM.
As to `C=CC(=O)Nc1cn(-c2cccc(Cl)c2)c2ccccc12` [compound 25, N-(1-(3-chlorophenyl)-1H-indol-3-yl)acrylamide], the EC50 fell in the range of 1 to 20 µM.
On to `C=CC(=O)Nc1cn(-c2ccc(-c3ccccc3)cc2)c2ccccc12` [compound 26, N-(1-([1,1′-biphenyl]-4-yl)-1H-indol-3-yl)acrylamide], for which the EC50 is < 1 µM.
On to `CCC(=O)NCc1cn(-c2ccc(C(F)(F)F)cc2)c2ccccc12` [compound 28, N-((1-(4-(trifluoromethyl)phenyl)-1H-indol-3-yl)methyl)propionamide], for which the EC50 was in the range of 1 to 20 µM.
For the molecule `CCC(=O)NCc1cc2ccccc2n1-c1ccc(C(F)(F)F)cc1` [compound 30, N-((1-(4-(trifluoromethyl)phenyl)-1H-indol-2-yl)methyl)propionamide], the EC50 was > 20 µM.
In the case of `C=CC(=O)NCc1cc2ccccc2n1Cc1cccc(C(F)(F)F)c1` [compound 32, N-((1-(3-(trifluoromethyl)benzyl)-1H-indol-2-yl)methyl)acrylamide] it was < 1 µM; in that of `C=CC(=O)NC1C(=O)N(c2ccc(C(F)(F)F)cc2)c2ccccc21` (stereo not shown) [compound 33, N-(2-oxo-1-(4-(trifluoromethyl)phenyl)indolin-3-yl)acrylamide], 1 to 20 µM.
Regarding `CC(=O)NC1C(=O)N(c2ccc(C(F)(F)F)cc2)c2ccccc21` (stereo not shown) [compound 34, N-(2-oxo-1-(4-(trifluoromethyl)phenyl)indolin-3-yl)acetamide], the EC50 was > 20 µM.
Consider `Cn1ccc(-c2cc(-c3ccccc3)cn3cc(CC(=O)O)nc23)n1` [compound 35, 2-(8-(1-methyl-1H-pyrazol-3-yl)-6-phenylimidazo[1,2-a]pyridin-2-yl)acetic acid], for which the EC50 was > 20 µM.
Regarding `O=C(O)Cc1cn2cc(-c3ccccc3)cc(-c3cnn(Cc4cccnc4)c3)c2n1` [compound 36, 2-(6-phenyl-8-(1-(pyridin-3-ylmethyl)-1H-pyrazol-4-yl)imidazo[1,2-a]pyridin-2-yl)acetic acid], the EC50 is > 20 µM.
`CNC(=O)Cc1cn2cc(-c3ccccc3)cc(-c3ccn(C)n3)c2n1` [compound 37, N-methyl-2-(8-(1-methyl-1H-pyrazol-3-yl)-6-phenylimidazo[1,2-a]pyridin-2-yl)acetamide]: the EC50 was > 20 µM.
For the molecule `Cn1ccc(-c2cc(Nc3ccccc3)cn3cc(CC(=O)O)nc23)n1` [compound 38, 2-(8-(1-methyl-1H-pyrazol-3-yl)-6-(phenylamino)imidazo[1,2-a]pyridin-2-yl)acetic acid], the EC50 is > 20 µM.
As for `CNC(=O)Cc1cn2cc(Nc3ccccc3)cc(-c3ccn(C)n3)c2n1` [compound 39, N-methyl-2-(8-(1-methyl-1H-pyrazol-3-yl)-6-(phenylamino)imidazo[1,2-a]pyridin-2-yl)acetamide], the EC50 is > 20 µM.
In the case of `C=CC(=O)NCc1nn(-c2ccc(C(F)(F)F)cc2)c2ccncc12` [compound 41, N-((1-(4-(trifluoromethyl)phenyl)-1H-pyrazolo[4,3-c]pyridin-3-yl)methyl)acrylamide] it was < 1 µM.
Take `CS(=O)(=O)NCc1nn(-c2ccc(C(F)(F)F)cc2)c2ccc(OCC#N)cc12` [compound 42, N-[[5-(cyanomethoxy)-1-[4-(trifluoromethyl)phenyl]indazol-3-yl]methyl]methanesulfonamide]: the EC50 was > 20 µM.
As for `C=CC(=O)NCc1nn(-c2ccc(C(F)(F)F)cc2)c2ccc(Oc3cc(=O)[nH]c(=O)n3C)cc12` [compound 51, N-[[5-(3-methyl-2,6-dioxo-pyrimidin-4-yl)oxy-1-[4-(trifluoromethyl)phenyl]indazol-3-yl]methyl]prop-2-enamide], the concentration giving a half-maximal response (EC50) is < 1 µM.
For `CS(=O)(=O)NCc1nn(-c2ccc(C(F)(F)F)cc2)c2ccc(OCc3cc[nH]n3)cc12` [compound 52, N-[[5-(1H-pyrazol-3-ylmethoxy)-1-[4-(trifluoromethyl)phenyl]indazol-3-yl]methyl]methanesulfonamide], the EC50 lay within 1 to 20 µM.
`CCC(=O)NCc1nn(-c2ccc(C(F)(F)F)cc2)c2ccc(Oc3cc(=O)[nH]c(=O)n3C)cc12` [compound 53, N-[[5-(3-methyl-2,6-dioxo-pyrimidin-4-yl)oxy-1-[4-(trifluoromethyl)phenyl]indazol-3-yl]methyl]propanamide]: the EC50 is > 20 µM.
